# Test results published in PubChem BioAssay (NCI).
#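 GI50 is the concentration that inhibits growth by half. TGI denotes the concentration required for complete inhibition of growth.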
# Assays:
# Experiment in all cases: inhibition of tumour cell growth, NCI panel, 384-well format
# T-47D breast = system: T-47D breast
# A549 NSCLC = system: A549 NSCLC
# HOP-62 NSCLC = system: HOP-62 NSCLC
# RPMI-8226 leukemia = system: RPMI-8226 leukemia
# OVCAR-5 ovarian = system: OVCAR-5 ovarian
# LOX IMVI melanoma = system: LOX IMVI melanoma
# NCI-H522 lung = system: NCI-H522 lung
# NCI-H226 lung = system: NCI-H226 lung
# NCI-H460 NSCLC = system: NCI-H460 NSCLC
# SF-539 CNS = system: SF-539 CNS
# SK-MEL-28 melanoma = system: SK-MEL-28 melanoma
# EKVX NSCLC = system: EKVX NSCLC
# NCI-H322M lung = system: NCI-H322M lung
# HOP-92 NSCLC = system: HOP-92 NSCLC
# PC-3 prostate = system: PC-3 prostate
# SW-620 colon = system: SW-620 colon
# ACHN renal = system: ACHN renal
# HCT-116 colon = system: HCT-116 colon
# CAKI-1 renal = system: CAKI-1 renal
# HCC-2998 colon = system: HCC-2998 colon
# A498 renal = system: A498 renal
# OVCAR-4 ovarian = system: OVCAR-4 ovarian
# M14 melanoma = system: M14 melanoma
# MDA-MB-435 melanoma = system: MDA-MB-435 melanoma
# U251 glioblastoma = system: U251 glioblastoma
# RXF 393 renal = system: RXF 393 renal
# HS 578T breast = system: HS 578T breast
# SK-OV-3 ovarian = system: SK-OV-3 ovarian
# KM12 colon = system: KM12 colon
# UACC-257 melanoma = system: UACC-257 melanoma
# MOLT-4 leukemia = system: MOLT-4 leukemia
# CCRF-CEM leukemia = system: CCRF-CEM leukemia
# K-562 leukemia = system: K-562 leukemia
# 786-0 renal = system: 786-0 renal
# DU-145 prostate = system: DU-145 prostate
# NCI-H23 lung = system: NCI-H23 lung
# BT-549 breast = system: BT-549 breast
# OVCAR-8 ovarian = system: OVCAR-8 ovarian
# MALME-3M melanoma = system: MALME-3M melanoma
# IGROV1 ovarian = system: IGROV1 ovarian
# HCT-15 colon = system: HCT-15 colon
# MDA-MB-231 breast = system: MDA-MB-231 breast
# SR leukemia = system: SR leukemia
# SF-268 CNS = system: SF-268 CNS
# SF-295 CNS = system: SF-295 CNS
# UACC-62 melanoma = system: UACC-62 melanoma
# COLO 205 colon = system: COLO 205 colon
# TK-10 renal = system: TK-10 renal
# MDA-MB-468 breast = system: MDA-MB-468 breast
# SNB-19 CNS = system: SNB-19 CNS
# HT29 colon = system: HT29 colon
# SK-MEL-5 melanoma = system: SK-MEL-5 melanoma
# SN12C renal = system: SN12C renal
# SNB-75 CNS = system: SNB-75 CNS
# HL-60(TB) leukemia = system: HL-60(TB) leukemia
# NCI/ADR-RES ovarian = system: NCI/ADR-RES ovarian
# UO-31 renal = system: UO-31 renal
# OVCAR-3 ovarian = system: OVCAR-3 ovarian
# SK-MEL-2 melanoma = system: SK-MEL-2 melanoma
compound,measurement,setting,value
COc1cc2c(c(OC)n1)[C@]1(O)[C@H](O)[C@H](CN(C)C)[C@@H](c3ccccc3)[C@]1(c1ccc(C#N)cc1)O2,GI50,T-47D breast,< 10 nM
same,TGI,T-47D breast,53.3 nM
same,GI50,A549 NSCLC,12 nM
same,TGI,A549 NSCLC,16000 nM
same,GI50,HOP-62 NSCLC,< 10 nM
same,TGI,HOP-62 NSCLC,48.3 nM
same,GI50,RPMI-8226 leukemia,< 10 nM
same,TGI,RPMI-8226 leukemia,< 10 nM
same,GI50,OVCAR-5 ovarian,11 nM
same,TGI,OVCAR-5 ovarian,58 nM
same,GI50,LOX IMVI melanoma,< 10 nM
same,TGI,LOX IMVI melanoma,20.5 nM
same,GI50,NCI-H522 lung,< 10 nM
same,TGI,NCI-H522 lung,33.7 nM
same,GI50,NCI-H226 lung,< 10 nM
same,TGI,NCI-H226 lung,57.5 nM
same,GI50,NCI-H460 NSCLC,< 10 nM
same,TGI,NCI-H460 NSCLC,23.3 nM
same,GI50,SF-539 CNS,< 10 nM
same,TGI,SF-539 CNS,20.1 nM
same,GI50,SK-MEL-28 melanoma,19.6 nM
same,TGI,SK-MEL-28 melanoma,67 nM
same,GI50,EKVX NSCLC,< 10 nM
same,TGI,EKVX NSCLC,46.3 nM
same,GI50,NCI-H322M lung,13.9 nM
same,TGI,NCI-H322M lung,55.7 nM
same,GI50,HOP-92 NSCLC,19.5 nM
same,TGI,HOP-92 NSCLC,78.7 nM
same,GI50,PC-3 prostate,< 10 nM
same,TGI,PC-3 prostate,2260 nM
same,GI50,SW-620 colon,< 10 nM
same,TGI,SW-620 colon,10000 nM
same,GI50,ACHN renal,10.2 nM
same,TGI,ACHN renal,48.3 nM
same,GI50,HCT-116 colon,< 10 nM
same,TGI,HCT-116 colon,26 nM
same,GI50,CAKI-1 renal,< 10 nM
same,TGI,CAKI-1 renal,41 nM
same,GI50,HCC-2998 colon,< 10 nM
same,TGI,HCC-2998 colon,28.5 nM
same,GI50,A498 renal,< 10 nM
same,TGI,A498 renal,266 nM
same,GI50,OVCAR-4 ovarian,< 10 nM
same,TGI,OVCAR-4 ovarian,43.4 nM
same,GI50,M14 melanoma,< 10 nM
same,TGI,M14 melanoma,38.2 nM
same,GI50,MDA-MB-435 melanoma,< 10 nM
same,TGI,MDA-MB-435 melanoma,583 nM
same,GI50,U251 glioblastoma,12.6 nM
same,TGI,U251 glioblastoma,209 nM
same,GI50,RXF 393 renal,< 10 nM
same,TGI,RXF 393 renal,21.8 nM
same,GI50,HS 578T breast,< 10 nM
same,TGI,HS 578T breast,40.6 nM
same,GI50,SK-OV-3 ovarian,< 10 nM
same,TGI,SK-OV-3 ovarian,1310 nM
same,GI50,KM12 colon,< 10 nM
same,TGI,KM12 colon,72.2 nM
same,GI50,UACC-257 melanoma,25.3 nM
same,TGI,UACC-257 melanoma,420 nM
same,GI50,MOLT-4 leukemia,< 10 nM
same,TGI,MOLT-4 leukemia,< 10 nM
same,GI50,CCRF-CEM leukemia,< 10 nM
same,TGI,CCRF-CEM leukemia,17.8 nM
same,GI50,K-562 leukemia,< 10 nM
same,TGI,K-562 leukemia,10700 nM
same,GI50,786-0 renal,18.6 nM
same,TGI,786-0 renal,77.6 nM
same,GI50,DU-145 prostate,< 10 nM
same,TGI,DU-145 prostate,48 nM
same,GI50,NCI-H23 lung,< 10 nM
same,TGI,NCI-H23 lung,41.2 nM
same,GI50,BT-549 breast,23.7 nM
same,TGI,BT-549 breast,95.7 nM
same,GI50,OVCAR-8 ovarian,20.8 nM
same,TGI,OVCAR-8 ovarian,10700 nM
same,GI50,MALME-3M melanoma,< 10 nM
same,TGI,MALME-3M melanoma,61.1 nM
same,GI50,IGROV1 ovarian,< 10 nM
same,TGI,IGROV1 ovarian,13900 nM
same,GI50,HCT-15 colon,13.1 nM
same,TGI,HCT-15 colon,99.3 nM
same,GI50,MDA-MB-231 breast,14.6 nM
same,TGI,MDA-MB-231 breast,94.8 nM
same,GI50,SR leukemia,11.7 nM
same,TGI,SR leukemia,32.8 nM
same,GI50,SF-268 CNS,15.7 nM
same,TGI,SF-268 CNS,175 nM
same,GI50,SF-295 CNS,25.9 nM
same,TGI,SF-295 CNS,81.9 nM
same,GI50,UACC-62 melanoma,11.9 nM
same,TGI,UACC-62 melanoma,57.5 nM
same,GI50,COLO 205 colon,< 10 nM
same,TGI,COLO 205 colon,120 nM
same,GI50,TK-10 renal,13.7 nM
same,TGI,TK-10 renal,46.4 nM
same,GI50,MDA-MB-468 breast,< 10 nM
same,TGI,MDA-MB-468 breast,23.1 nM
same,GI50,SNB-19 CNS,12.4 nM
same,TGI,SNB-19 CNS,119 nM
same,GI50,HT29 colon,22.2 nM
same,TGI,HT29 colon,15600 nM
same,GI50,SK-MEL-5 melanoma,< 10 nM
same,TGI,SK-MEL-5 melanoma,41.4 nM
same,GI50,SN12C renal,< 10 nM
same,TGI,SN12C renal,54.6 nM
same,GI50,SNB-75 CNS,16 nM
same,TGI,SNB-75 CNS,360 nM
same,GI50,HL-60(TB) leukemia,< 10 nM
same,TGI,HL-60(TB) leukemia,< 10 nM
same,GI50,NCI/ADR-RES ovarian,138 nM
same,TGI,NCI/ADR-RES ovarian,3270 nM
same,GI50,UO-31 renal,21.3 nM
same,TGI,UO-31 renal,91.6 nM
same,GI50,OVCAR-3 ovarian,< 10 nM
same,TGI,OVCAR-3 ovarian,28.2 nM
same,GI50,SK-MEL-2 melanoma,< 10 nM
same,TGI,SK-MEL-2 melanoma,41.3 nM
